Reference: patent publication US20120196899A1, “METHODS AND PRODUCTS FOR TREATING INFLAMMATION” (Rock Creek Pharmaceuticals, Inc., priority 2010, published 2012)
Values joined by “and” are separate entries in the source; they are usually repeats but may differ in a detail not shown here. Equal entries are not always repeated. “Also recorded” adds a separate entry of the source.

Legend:
[1] = Necropsy observations and organ weights, day 15; type: in vivo, Sprague-Dawley rats; conditions: for Organ Weight Brain / Organ Weight Heart / Organ Weight Kidneys / Organ Weight Liver / Organ Weight Lungs / Organ Weight Ovaries/uterus / Organ Weight Small intestine / Organ Weight Spleen / Organ Weight Thymus: female animals, group mean
Procedure: Body weight and food consumption was measured daily for 14 days. On day 15, urine was collected on all surviving animals. The animals were euthanized and bled via cardiac puncture, and blood was collected for analysis. Tissues were collected, weighed, evaluated for gross abnormalities, and stored in 10% neutral-buffered formalin.
(§1) On day 15, urine was collected on all surviving animals for urinalysis. The animals were euthanized and bled via cardiac puncture. Blood was collected for hematology, clinical chemistry, and coagulation analysis. Tissues were collected, weighed, and stored in 10% neutral-buffered formalin for possible future analysis.

Urinalysis, day 15 = type: in vivo, Sprague-Dawley rats
Excerpt: as §1
There were no notable differences between the active treatment groups and controls and the observations are all consistent with those expected for this species.

[2] = Physical signs after oral multi-dose administration; type: in vivo, Sprague-Dawley rats; conditions: 0.6 or 6.0 mg/kg BW p.o. in three divided doses
Excerpt: The physical signs of each animal were monitored following administration of the test compound.

BACE-1 mRNA = BACE-1 mRNA levels in SHSY cells by RTPCR; type: cell-based, human; conditions: 30 minutes, TNF-α induced
Excerpt: TNF-α was used to increase BACE expression.

[3] = system: Experimental Autoimmune Thyroiditis; experiment: Experimental Autoimmune Thyroiditis (Example 16A): serum antibodies to PPD and thyroglobulin; type: in vivo, mice
Procedure: Thyroiditis was induced by injection of thyroglobulin emulsified in complete Freund's adjuvant (CFA). On days 0 and 7, female mice received subcutaneous injection of 100 μg thyroglobulin (2 injections of 50 μg each). Control mice drank water. […] Mice were sacrificed on day 21.
Immunochemistry. Serum from control and anatabine-treated mice was examined to determine levels of antibodies to a foreign antigen (PPD).
Levels of antibodies to thyroglobulin were examined on days 7, 14, and 21 after immunization.

[4] = anatabine 0.75 mg/kg single i.v., male rats
[5] = Anatabine dose 0.1 mg/kg, individual animals B1-B10 (M and F)
[6] = Anatabine dose 0.1 mg/kg, individual animals B1-B10 (M and F), 0.1 mg/kg
[7] = Anatabine dose 0.75 mg/kg, individual animals C1-C10 (M and F)
[8] = Anatabine dose 0.75 mg/kg, individual animals C1-C10 (M and F), 0.75 mg/kg

## C1=CCC(c2cccnc2)NC1 (racemic) [Anatabine, 1,2,3,6-tetrahydro-[2,3′]bipyridinyl]
[1]; [4]
  Organ Weight Liver, Mean: 14.50 g
  Organ Weight Lungs, Mean: 1.82 g
  Organ Weight Prostate, Mean: 0.51 g
  Organ Weight Small intestine, Mean: 0.68 g
  Organ Weight Spleen, Mean: 0.74 g
  Organ Weight Testes, Mean: 3.21 g
  Organ Weight Thymus, Mean: 0.67 g
[1]; 0.1 mg/kg
  Organ Weight Brain: 1.86 g
  Organ Weight Heart: 1.13 g
  Organ Weight Kidneys: 2.18 g
  Organ Weight Liver: 10.84 g
  Organ Weight Lungs: 1.41 g
  Organ Weight Ovaries/uterus: 1.14 g
  Organ Weight Small intestine: 0.65 g
  Organ Weight Spleen: 0.65 g
  Organ Weight Thymus: 0.64 g
[1]; 0.75 mg/kg
  Organ Weight Brain: 1.90 g
  Organ Weight Heart: 1.11 g
  Organ Weight Kidneys: 2.30 g
  Organ Weight Liver: 10.42 g
  Organ Weight Lungs: 1.45 g
  Organ Weight Ovaries/uterus: 1.58 g
  Organ Weight Small intestine: 0.75 g
  Organ Weight Spleen: 0.60 g
  Organ Weight Thymus: 0.56 g
Urinalysis, day 15; Anatabine dose 0.1 mg/kg, animal B9 (F), unit not given
  Urinalysis VOLUME: 0.5
Urinalysis, day 15; [5]
  Urinalysis CLARITY: HAZY
  Urinalysis COLOR: YELLOW
  Urinalysis GLUCOSE: NEGATIVE
  Urinalysis UROBILINOGEN: NORMAL
  Urinalysis VOLUME: <0.5 mL
Urinalysis, day 15; [6]
  Urinalysis BILIRUBIN: NEGATIVE
  Urinalysis BLOOD: TRACE; also recorded: NEGA-
  Urinalysis KETONES: NEGATIVE
  Urinalysis PROTEIN: TRACE; also recorded: NEGA-
  Urinalysis SPEC GRAVITY: 1.027 (2×) and 1.039 (2×) and 1.048 and 1.036 and 1.045 and 1.017
  Urinalysis pH: 8.5 and 7.5 (4×) and 7 (2×) and 8
Urinalysis, day 15; [7]
  Urinalysis CLARITY: HAZY
  Urinalysis COLOR: YELLOW
  Urinalysis GLUCOSE: NEGATIVE
  Urinalysis UROBILINOGEN: NORMAL
Urinalysis, day 15; [8]
  Urinalysis BILIRUBIN: NEGATIVE
  Urinalysis BLOOD: TRACE; also recorded: NEGA-
  Urinalysis KETONES: NEGATIVE
  Urinalysis PROTEIN: TRACE
  Urinalysis SPEC GRAVITY: 1.05 and 1.051 and 1.043 and 1.049 and 1.016 and 1.039 and 1.036 and 1.014
  Urinalysis VOLUME: <0.5 mL (8×) and <0.25 mL
  Urinalysis pH: 7 (3×) and 8 (3×) and 7.5 and 6
[2]
  adverse signs: no adverse signs were observed
BACE-1 mRNA
  BACE-1 mRNA expression: reduced this signal in a concentration-dependent manner
[3]; 0.05 mg/ml in drinking water, versus control
  levels of antibodies to PPD: no significant difference
[3]; day 7
  levels of antibodies to thyroglobulin: no significant difference
[3]; day 14, p=0.086
  levels of antibodies to thyroglobulin: tended to have lower thyroglobulin antibodies
[3]; day 21
  levels of antibodies to thyroglobulin: no significant difference
